This passage reports EC50 results from patent US7906655B2, “Hepatitis C virus inhibitors” (Bristol-Myers Squibb Company, priority 2008, dated 2011).

pEC50: −log10 of the molar value. Where only a bound is given, the exact number is not on record here.

The subject of one assay is HCV 1b genotype. Briefly: HCV Replicon assay (HCV-neo replicon cells, wild-type). Format: cell-based. Conditions: HCV 1b genotype replicon; class symbols. As for the experimental part: An HCV Replicon assay was utilized in the present disclosure, and was prepared, conducted and validated as described in commonly owned PCT/US2006/022197 and in O'Boyle et. al. Antimicrob Agents Chemother. 2005 April; 49 (4):1346-53. Assay methods incorporating luciferase reporters have also been used as described (Apath.com).
HCV-neo replicon cells and replicon cells containing mutations in the NS5A region were used to test the currently described family of compounds. The compounds were determined to have more than 10-fold less inhibitory activity on cells containing mutations than wild-type cells. Thus, the compounds of the present disclosure can be effective in inhibiting the function of the HCV NS5A protein and are understood to be as effective in combinations as previously described in application PCT/US2006/022197 and commonly owned WO/O4014852. Further, the compounds of the present disclosure can be effective against the HCV 1b genotype. It should also be understood that the compounds of the present disclosure can inhibit multiple genotypes of HCV. […] In one embodiment, compounds of the present disclosure are inhibitory versus 1a, 1b, 2a, 2b, 3a, 4a, and 5a genotypes.
By pEC50 is commonly meant the EC50 on a negative log10 scale, so that one unit is a factor of ten. Regarding `COC(=O)N[C@H](C(=O)N1CCC[C@H]1c1nc2cc(-c3cnc(-c4ccc5[nH]c([C@@H]6CCCN6C(=O)[C@@H](NC(=O)OC)C(C)C)nc5c4)o3)ccc2[nH]1)C(C)C` [Example J19, methyl ((1S)-1-(((2S)-2-(5-(2-(2-((2S)-1-((2S)-2-((methoxy-carbonyl)amino)-3-methyl-butanoyl)-2-pyrrolidinyl)-1H-benzimidazol-5-yl)-1,3-oxazol-5-yl)-1H-benzimidazol-2-yl)-1-pyrrolidinyl)carbonyl)-2-methylpropyl) carbamate], the pEC50 is above 8.34.

The same assay, now with this note: Hepatitis C virus, HCV 1b genotype replicon; class symbols.
In the case of `O=C([C@H](O)c1ccccc1)N1CCC[C@H]1c1nc2cc(-c3cnc(-c4cccc5[nH]c([C@@H]6CCCN6C(=O)[C@H](O)c6ccccc6)nc45)o3)ccc2[nH]1` [Example J9, (1R)-2-((2S)-2-(4-(5-(2-((2S)-1-((2R)-2-hydroxy-2-phenylacetyl)-2-pyrrolidinyl)-1H-benzimidazol-5-yl)-1,3-oxazol-2-yl)-1H-benzimidazol-2-yl)-1-pyrrolidinyl)-2-oxo-1-phenylethanol], the negative logarithm of the EC50 (pEC50) was 7.00 to 8.34.
In the case of `CN(C)[C@@H](C(=O)N1CCC[C@H]1c1nc2cc(-c3cnc(-c4cccc5[nH]c([C@@H]6CCCN6C(=O)[C@@H](c6ccccc6)N(C)C)nc45)o3)ccc2[nH]1)c1ccccc1` [Example J11, (1R)-2-((2S)-2-(4-(5-(2-((2S)-1-((2R)-2-(dimethyl-amino)-2-phenylacetyl)-2-pyrrolidinyl)-1H-benzimidazol-5-yl)-1,3-oxazol-2-yl)-1H-benzimidazol-2-yl)-1-pyrrolidinyl)-N,N-dimethyl-2-oxo-1-phenyl-ethanamine], the pEC50 was above 8.34.
In the case of `CC(=O)N[C@@H](C(=O)N1CCC[C@H]1c1nc2cc(-c3cnc(-c4cccc5[nH]c([C@@H]6CCCN6C(=O)[C@@H](c6ccccc6)N(C)C)nc45)o3)ccc2[nH]1)c1ccccc1` [Example J11.1, N-((1R)-2-((2S)-2-(5-(2-(2-((2S)-1-((2R)-2-(dimethyl-amino)-2-phenylacetyl)-2-pyrrolidinyl)-1H-benzimidazol-4-yl)-1,3-oxazol-5-yl)-1H-benzimidazol-2-yl)-1-pyrrolidinyl)-2-oxo-1-phenylethyl) acetamide], the pEC50 was above 8.34.
For `CC(=O)N[C@H](C(=O)N1CCC[C@H]1c1nc2cc(-c3cnc(-c4cccc5[nH]c([C@@H]6CCCN6C(=O)[C@@H](c6ccccc6)N(C)C)nc45)o3)ccc2[nH]1)c1ccccc1` [Example J11.2, N-((1S)-2-((2S)-2-(5-(2-(2-((2S)-1-((2R)-2-(dimethyl-amino)-2-phenylacetyl)-2-pyrrolidinyl)-1H-benzimidazol-4-yl)-1,3-oxazol-5-yl)-1H-benzimidazol-2-yl)-1-pyrrolidinyl)-2-oxo-1-phenylethyl) acetamide], the pEC50 was above 8.34.
On to `CC(=O)N[C@@H](C(=O)N1CCC[C@H]1c1nc2cc(-c3cnc(-c4cccc5[nH]c([C@@H]6CCCN6C(=O)[C@H](NC(C)=O)c6ccccc6)nc45)o3)ccc2[nH]1)c1ccccc1` [Example J12, N-((1R)-2-((2S)-2-(4-(5-(2-((2S)-1-((2R)-2-acetamido-2-phenylacetyl)-2-pyrrolidinyl)-1H-benzimidazol-5-yl)-1,3-oxazol-2-yl)-1H-benzimidazol-2-yl)-1-pyrrolidinyl)-2-oxo-1-phenylethyl) acetamide], for which the pEC50 is above 8.34.
The same measure, in the same setting: then `O=C(C(c1ccccc1)N1CCC(O)CC1)N1CCC[C@H]1c1nc2cc(-c3cnc(-c4cccc5[nH]c([C@@H]6CCCN6C(=O)C(c6ccccc6)N6CCC(O)CC6)nc45)o3)ccc2[nH]1` (stereo partly drawn) [Example J13, 1-(2-((2S)-2-(4-(5-(2-((2S)-1-((4-hydroxy-1-piperidinyl) (phenyl)acetyl)-2-pyrrolidinyl)-1H-benzimidazol-5-yl)-1,3-oxazol-2-yl)-1H-benzimidazol-2-yl)-1-pyrrolidinyl)-2-oxo-1-phenylethyl)-4-piperidinol], with above 8.34.
In the case of `CN1CCN([C@@H](C(=O)N2CCC[C@H]2c2nc3cc(-c4cnc(-c5cccc6[nH]c([C@@H]7CCCN7C(=O)[C@@H](c7ccccc7)N7CCN(C)CC7)nc56)o4)ccc3[nH]2)c2ccccc2)CC1` [Example J14, 2-((2S)-1-((2R)-2-(4-methyl-1-piperazinyl)-2-phenylacetyl)-2-pyrrolidinyl)-4-(5-(2-((2S)-1-((2R)-2-(4-methyl-1-piperazinyl)-2-phenylacetyl)-2-pyrrolidinyl)-1H-benzimidazol-5-yl)-1,3-oxazol-2-yl)-1H-benzimidazole], the pEC50 was above 8.34.
For the compound `CN1CCN(C(C(=O)N2CCC[C@H]2c2nc3cc(-c4cnc(-c5cccc6[nH]c([C@@H]7CCCN7C(=O)C(c7ccccc7)N7CCN(C)CC7)nc56)o4)ccc3[nH]2)c2ccccc2)CC1` (stereo partly drawn) [Example J14.1, 2-((2S)-1-((4-methyl-1-piperazinyl) (phenyl)acetyl)-2-pyrrolidinyl)-4-(5-(2-((2S)-1-((4-methyl-1-piperazinyl) (phenyl)acetyl)-2-pyrrolidinyl)-1H-benzimidazol-5-yl)-1,3-oxazol-2-yl)-1H-benzimidazole], the pEC50 is 7.00 to 8.34.
As for `O=C(Cc1ccccc1)N1CCC[C@H]1c1nc2cc(-c3cnc(-c4ccc5nc([C@@H]6CCCN6C(=O)Cc6ccccc6)[nH]c5c4)o3)ccc2[nH]1` [Example J16], the pEC50 is 7.00 to 8.34.
Turning to `O=C([C@H](O)c1ccccc1)N1CCC[C@H]1c1nc2cc(-c3cnc(-c4ccc5nc([C@@H]6CCCN6C(=O)[C@H](O)c6ccccc6)[nH]c5c4)o3)ccc2[nH]1` [Example J17, (1R)-2-((2S)-2-(5-(2-(2-((2S)-1-((2R)-2-hydroxy-2-phenylacetyl)-2-pyrrolidinyl)-1H-benzimidazol-6-yl)-1,3-oxazol-5-yl)-1H-benzimidazol-2-yl)-1-pyrrolidinyl)-2-oxo-1-phenylethanol], the pEC50 is above 8.34.
`C[C@@](O)(C(=O)N1CCC[C@H]1c1nc2cc(-c3cnc(-c4ccc5nc([C@@H]6CCCN6C(=O)[C@@](C)(O)c6ccccc6)[nH]c5c4)o3)ccc2[nH]1)c1ccccc1` [Example J18, (2S)-1-((2S)-2-(5-(2-(2-((2S)-1-((2S)-2-hydroxy-2-phenyl-propanoyl)-2-pyrrolidinyl)-1H-benzimidazol-6-yl)-1,3-oxazol-5-yl)-1H-benzimidazol-2-yl)-1-pyrrolidinyl)-1-oxo-2-phenyl-2-propanol]: the pEC50 is above 8.34.

The assay is the same for the next values; noted with them: Hepatitis C virus, HCV 1b genotype replicon; numeric values.
Turning to `COC(=O)N[C@H](C(=O)N1CCC[C@H]1c1nc2cc(-c3cnc(-c4cccc5[nH]c([C@@H]6CCCN6C(=O)[C@@H](NC(=O)OC)C(C)C)nc45)o3)ccc2[nH]1)C(C)C` [Example J10, methyl ((1S)-1-(((2S)-2-(4-(5-(2-((2S)-1-((2S)-2-(methoxy-carbonyl)amino)-3-methyl-butanoyl)-2-pyrrolidinyl)-1H-benzimidazol-5-yl)-1,3-oxazol-2-yl)-1H-benzimidazol-2-yl)-1-pyrrolidinyl)carbonyl)-2-methylpropyl) carbamate], the pEC50 was 11.15.
For `COc1cccc2c(C(=O)N3CCC[C@H]3c3nc4cc(-c5cnc(-c6cccc7[nH]c([C@@H]8CCCN8C(=O)c8nc(Cl)cc9c(OC)cccc89)nc67)o5)ccc4[nH]3)nc(Cl)cc12` [Example J15, 3-chloro-1-(((2S)-2-(4-(5-(2-((2S)-1-((3-chloro-5-methoxy-1-isoquinolinyl)carbonyl)-2-pyrrolidinyl)-1H-benzimidazol-5-yl)-1,3-oxazol-2-yl)-1H-benzimidazol-2-yl)-1-pyrrolidinyl)carbonyl)-5-methoxy-isoquinoline], the pEC50 was below 5.00.
